Experimental data reported in ChEMBL document CHEMBL5649166, “RIP3 induces apoptosis independent of pronecrotic kinase activity” (Mol Cell, 2014).
The source made the active and inactive calls. The calls are words filed in the database; no cut-off is given here.

Tests used:
[1] = system: L929; experiment: Inhibition of TNF-alpha induced necroptosis in mouse L929 cells assessed as increase in cell viability at 10 uM incubated for 18 hrs in presence of zVAD by Cell Titer-Glo luminescent cell viability assay; assay type: functional, cell-based
[2] = system: SVEC4-10; experiment: Inhibition of TNF-induced necroptosis in mouse SVEC4-10 cells assessed as increase in cell viability incubated for 18 hrs in presence of zVAD by Cell Titer-Glo luminescent cell viability assay; assay type: functional, cell-based
[3] = system: L929; experiment: Inhibition of TLR-3 induced necroptosis in mouse L929 cells assessed as increase in cell viability at 10 uM incubated for 18 hrs in presence of zVAD and poly(I:C) by Cell Titer-Glo luminescent cell viability assay; assay type: functional, cell-based
[4] = system: SVEC4-10; experiment: Inhibition of DAI-induced necroptosis in MCMV M45mutRHIM infected mouse SVEC4-10 cells assessed as increase in cell viability incubated for 18 hrs by Cell Titer-Glo luminescent cell viability assay; assay type: functional, cell-based
[5] = system: L929; experiment: Inhibition of TNF-alpha induced necroptosis in mouse L929 cells assessed as increase in cell viability at 30 uM incubated for 18 hrs in presence of zVAD by Cell Titer-Glo luminescent cell viability assay; assay type: functional, cell-based
[6] = system: L929; experiment: Inhibition of TLR-3 induced necroptosis in mouse L929 cells assessed as increase in cell viability at 30 uM incubated for 18 hrs in presence of zVAD and poly(I:C) by Cell Titer-Glo luminescent cell viability assay; assay type: functional, cell-based
[7] = system: 3T3SA; experiment: Induction of apoptosis in mouse 3T3SA cells assessed as cell death by measuring percent of PI positive cells incubated for 3 hrs in presence of TNF by PI staining based flow cytometric analysis (reference value: 10.7%); assay type: toxicity
[8] = system: 3T3SA; experiment: Induction of apoptosis in mouse 3T3SA cells assessed as cell death by measuring percent of PI positive cells incubated for 8 hrs in presence of TNF by PI staining based flow cytometric analysis (reference value: 11.4%); assay type: toxicity

Structure (SMILES)	inhibition [1]	inhibition [2]	inhibition [3]	inhibition [4]	inhibition [5]	inhibition [6]	Activity [7]	Activity [8]
CC(C)(C)C(=O)N1N=CC[C@H]1c1ccccc1	Active	Active	inactive	inactive				
CN1C(=O)C(Cc2c[nH]c3ccccc23)NC1=S (stereo not given)		Active		inactive	Active	inactive		
C[C@@H]1CC([C@H](O)CC2CC(=O)NC(=O)C2)C(=O)[C@@H](C)C1 (stereo not given in full)							22%	60%
